Paper PMC5471521, “Novel selective β1-adrenoceptor antagonists for concomitant cardiovascular and respiratory disease” (The FASEB Journal, 2017)

Assays:
rat β1-AR = target: T1, rat β1-AR (Rattus norvegicus, UniProt P18090); assay: 3H-CGP12177 whole-cell binding in transiently transfected CHO cells; settings: for Rat β1 vs. β2 selectivity Kd,ratβ2/Kd,ratβ1: from 3H-CGP12177 whole-cell binding; for Kd: transiently transfected CHO cells, mean ± SEM, read-out: Rat β1-AR Log Kd (converted)
T1 construct: host or cells: CHO cells, transient transfection
T1 sequence (P18090 whole entry): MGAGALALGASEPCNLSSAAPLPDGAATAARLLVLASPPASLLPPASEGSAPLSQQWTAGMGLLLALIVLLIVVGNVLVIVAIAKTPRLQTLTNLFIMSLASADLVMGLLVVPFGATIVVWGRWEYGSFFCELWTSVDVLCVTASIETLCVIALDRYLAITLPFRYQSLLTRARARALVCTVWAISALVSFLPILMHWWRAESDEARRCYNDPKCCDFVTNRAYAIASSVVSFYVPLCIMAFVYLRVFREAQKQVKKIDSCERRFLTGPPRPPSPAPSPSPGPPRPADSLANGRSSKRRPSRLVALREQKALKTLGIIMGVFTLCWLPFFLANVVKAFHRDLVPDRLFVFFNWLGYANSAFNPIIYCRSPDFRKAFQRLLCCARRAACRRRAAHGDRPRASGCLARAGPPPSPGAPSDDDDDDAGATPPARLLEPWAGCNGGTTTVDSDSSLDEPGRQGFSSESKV
Procedure: (§1) Human bronchial smooth muscle cells were obtained from Lonza (Basel, Switzerland) and grown in manufacturer media. Rat β-AR binding experiments (DNA from cDNA Resource Centre, Bloomsburg, PA, USA) were conducted by using transiently transfected CHO cells ([44]).
(§2) Propranolol (10 μM) defined nonspecific binding. Kd values were derived from IC50 values by using the Cheng-Prusoff equation as previously described ([11]).

rat β2-AR = target: T2, rat β2-AR (Rattus norvegicus, UniProt P10608); assay: as above; settings: transiently transfected CHO cells, mean ± SEM; cells marked ^a are apparent log Kd; read-out: Rat β2-AR Log Kd (converted)
T2 construct: host or cells: CHO cells, transient transfection
T2 sequence (P10608 whole entry): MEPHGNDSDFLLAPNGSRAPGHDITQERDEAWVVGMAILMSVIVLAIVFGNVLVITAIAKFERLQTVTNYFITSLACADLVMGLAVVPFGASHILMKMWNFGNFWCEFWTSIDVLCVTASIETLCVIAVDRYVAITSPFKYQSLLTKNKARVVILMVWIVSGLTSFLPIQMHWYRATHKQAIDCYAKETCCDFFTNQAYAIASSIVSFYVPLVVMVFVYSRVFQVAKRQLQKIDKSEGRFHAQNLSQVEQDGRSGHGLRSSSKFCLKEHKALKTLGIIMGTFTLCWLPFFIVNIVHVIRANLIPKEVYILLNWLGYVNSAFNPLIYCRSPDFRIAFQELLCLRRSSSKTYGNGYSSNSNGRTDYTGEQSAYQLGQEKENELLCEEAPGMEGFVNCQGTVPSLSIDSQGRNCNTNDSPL
Procedure: as §1, §2

human β3-AR = target: T3, human β3-AR (Homo sapiens, UniProt P13945); assay: Antagonism of cimaterol-induced 3H-cAMP accumulation in CHO-β3 cells; format: cell-based; settings: cimaterol agonist, mean ± SEM, read-out: Log Kd,β3 (converted)
T3 construct: expressed in transfected cells
T3 sequence (P13945 whole entry): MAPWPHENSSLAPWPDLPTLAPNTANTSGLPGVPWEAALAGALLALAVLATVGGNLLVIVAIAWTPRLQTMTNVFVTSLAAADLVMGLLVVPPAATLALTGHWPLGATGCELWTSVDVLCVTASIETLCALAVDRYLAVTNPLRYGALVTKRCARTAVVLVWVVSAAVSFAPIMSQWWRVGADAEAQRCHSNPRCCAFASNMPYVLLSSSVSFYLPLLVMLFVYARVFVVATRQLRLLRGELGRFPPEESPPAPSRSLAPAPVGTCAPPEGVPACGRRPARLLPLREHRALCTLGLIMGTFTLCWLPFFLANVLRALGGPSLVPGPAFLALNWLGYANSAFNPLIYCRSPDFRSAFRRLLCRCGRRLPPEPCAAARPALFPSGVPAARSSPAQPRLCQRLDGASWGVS
Procedure: Confluent cells were examined (24-well plates, 5 h incubation at 37°C) as described in Baker ([45]). Antagonist Kd values were calculated from a rightward shift of the agonist concentration response curve by using the Gaddum equation as previously described ([46]).

[1] = Protein binding by ultracentrifugation, human plasma; format: in vitro ADME; settings: read-out: fu human plasma
Procedure: Protein binding of 1 µM NDD-713.HCl and -825.HCl in human and rat plasma, as well as human liver microsomes, was assessed by using the ultracentrifugation technique. Frozen human plasma (Australian Red Cross Blood Service, Melbourne, VIC, Australia) and rat plasma (male Sprague-Dawley rats; Charles River, Margate, Kent, United Kingdom) were thawed at 37°C. Human liver microsomes (XenoTech) were suspended in 0.1 M phosphate buffer (pH 7.4) at protein concentrations of 0.4 mg/ml. Samples were collected immediately as stability reference controls. Spiked plasma samples (but not microsome samples) were incubated at 37°C for 1 h. […] NDD-713.HCl and -825.HCl concentrations of noncentrifuged matrix and protein-free supernatant were determined by UPLC-MS relative to calibration standards prepared in the respective matrices. Total concentration (Ctotal) was the average measured concentration in […] samples maintained at 37°C, and unbound concentration (Cunbound) was the average measured concentration in protein-free supernatants from centrifuged samples (n = 3). The compound unbound fraction (fu) was calculated: fu = Cunbound/Ctotal. Compound degradation was assessed by comparing concentrations in noncentrifuged plasma samples that were incubated at 37°C with concentrations measured in the t = 0 noncentrifuged samples. […]

CYP3A4 = target: T4, CYP3A4 (Homo sapiens, UniProt P08684); assay: P450 in vitro clearance, recombinant Supersomes; format: in vitro ADME; settings: 2 μM, hydrochloride salts used
T4 construct: purchased BD Biosciences
T4 sequence (P08684 whole entry): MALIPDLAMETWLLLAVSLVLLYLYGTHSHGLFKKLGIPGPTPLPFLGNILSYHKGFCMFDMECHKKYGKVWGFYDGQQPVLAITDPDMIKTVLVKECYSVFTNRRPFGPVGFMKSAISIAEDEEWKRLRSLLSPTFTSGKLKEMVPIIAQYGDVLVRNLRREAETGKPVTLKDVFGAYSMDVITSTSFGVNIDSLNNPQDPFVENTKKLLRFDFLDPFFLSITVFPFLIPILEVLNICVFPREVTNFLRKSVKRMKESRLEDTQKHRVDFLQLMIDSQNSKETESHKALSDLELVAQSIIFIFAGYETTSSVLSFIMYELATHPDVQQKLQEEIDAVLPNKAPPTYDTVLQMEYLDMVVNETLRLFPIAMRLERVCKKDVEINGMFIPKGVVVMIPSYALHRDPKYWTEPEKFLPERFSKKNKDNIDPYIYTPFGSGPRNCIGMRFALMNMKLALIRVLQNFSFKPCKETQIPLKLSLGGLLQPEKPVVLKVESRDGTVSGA
Procedure: NDD-713.HCl and -825.HCl (2 μM) and cytochrome P450 (P450) reference substrates (see Supplemental Data for full details) were incubated (37°C) with selected recombinant human P450 isoforms (CYP1A2, CYP2A6, CYP2B6, CYP2C8, CYP2C9, CYP2C19, CYP2D6 CYP2E1, and CYP3A4) in heterologously expressed P450 Supersomes (BD Biosciences) that were suspended in […] Tris-HCl buffer (pH 7.4; for CYP2C9) or 100 mM phosphate buffer (pH 7.4; for the other isoforms) at final P450 concentrations of 85 pmol/ml. Reactions were initiated by additions of an NADPH-regenerating system and quenched at time points over 60 min (reference probes) or 120 min (test compounds) by acetonitrile. Quenched samples were centrifuged and supernatants were collected. NDD-713, -825, and probe metabolites were determined by UPLC-MS relative to calibration standards prepared in quenched matrix, and %substrate that remained was calculated relative to the initial sample concentration. The %substrate that remained vs. time was fitted to exponential decay functions to determine the pseudo first-order rate constant (k/min) for substrate depletion. These were normalized to P450 concentrations (pmol/ml) to obtain in vitro CLint values: CLint, in vitro (μl/min/pmol P450) = [k (min^−1)/P450 concentration […]] × 1000. Studies were carried out by CDCO.

[2] = test system: Salmonella typhimurium strains TA98, TA100, TA1535, and TA1537; settings: concentrations of ≤10 μM, with or without rat liver S9
Procedure: Ames fluctuation assays were performed by using Salmonella typhimurium strains TA98, TA100, TA1535, and TA1537 to detect frame-shifts and base substitutions that led to missense mutations in liquid culture in 384-well plates. Bacterial plates were incubated with serially diluted NDD-713 and -825 solutions for 96 h, and bacterial growth was measured spectrophotometrically by using a pH color-change indicator in response to bacterial growth acidification. Assays were conducted with or without metabolic activation via addition of rat liver S9 fraction. Bacteriocidal or bacteriostatic effects were assessed by using a bacterial cytotoxicity assay that was conducted in parallel with Ames fluctuation assays. Reference compounds were 2-aminoanthracene, 9-aminoacridine, quercetin, streptozotocin (genotoxicity), and mitomycin C (bacterial cytotoxicity). Study was carried out by Cerep (Celle L’Evescault, France).

hERG potassium channel = hERG potassium channel (Homo sapiens, UniProt Q12809); assay: hERG 3H-astemizole radioligand binding; settings: 10 µM; concentrations >3000-fold β1-AR affinity
hERG potassium channel, sequence (Q12809 whole entry): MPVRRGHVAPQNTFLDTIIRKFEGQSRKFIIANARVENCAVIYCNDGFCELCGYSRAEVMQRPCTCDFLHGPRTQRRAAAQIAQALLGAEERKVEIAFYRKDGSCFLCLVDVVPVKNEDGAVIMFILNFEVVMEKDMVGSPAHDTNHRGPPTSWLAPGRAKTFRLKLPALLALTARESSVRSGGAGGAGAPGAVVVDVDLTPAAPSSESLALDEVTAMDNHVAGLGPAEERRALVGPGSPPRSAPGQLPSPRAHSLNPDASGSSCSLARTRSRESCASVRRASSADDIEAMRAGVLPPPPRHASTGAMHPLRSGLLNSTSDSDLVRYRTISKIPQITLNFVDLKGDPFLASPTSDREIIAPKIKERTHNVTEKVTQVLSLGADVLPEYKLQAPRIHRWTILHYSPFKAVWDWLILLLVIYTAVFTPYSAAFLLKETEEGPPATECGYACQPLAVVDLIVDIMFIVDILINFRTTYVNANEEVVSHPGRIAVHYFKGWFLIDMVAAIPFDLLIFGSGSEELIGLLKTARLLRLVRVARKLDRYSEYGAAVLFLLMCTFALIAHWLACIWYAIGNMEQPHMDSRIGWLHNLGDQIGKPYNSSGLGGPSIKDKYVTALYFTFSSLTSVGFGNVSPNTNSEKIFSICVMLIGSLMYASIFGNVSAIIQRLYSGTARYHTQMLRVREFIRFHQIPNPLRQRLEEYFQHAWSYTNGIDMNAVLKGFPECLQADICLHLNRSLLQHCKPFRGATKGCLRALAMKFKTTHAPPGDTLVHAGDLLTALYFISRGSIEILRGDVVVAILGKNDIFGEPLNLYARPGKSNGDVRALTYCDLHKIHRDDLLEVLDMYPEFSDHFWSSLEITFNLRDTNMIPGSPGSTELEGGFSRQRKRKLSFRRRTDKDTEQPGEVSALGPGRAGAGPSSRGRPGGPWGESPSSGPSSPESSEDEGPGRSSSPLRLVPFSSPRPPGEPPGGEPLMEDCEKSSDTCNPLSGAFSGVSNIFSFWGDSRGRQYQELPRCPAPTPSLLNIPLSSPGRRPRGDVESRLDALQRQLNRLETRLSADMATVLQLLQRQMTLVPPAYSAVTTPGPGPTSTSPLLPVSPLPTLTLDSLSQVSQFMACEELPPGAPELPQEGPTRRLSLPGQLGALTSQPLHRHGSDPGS

| SMILES | Rat β1 vs. β2 selectivity Kd,ratβ2/Kd,ratβ1 (rat β1-AR) | Kd (rat β1-AR) | Kd (rat β2-AR) | Kd (human β3-AR) | fraction unbound at 1 h, 1 µM [1] | P450 in vitro clearance CLint, CYP3A4 (CYP3A4) | Genotoxicity in Ames tests [2] | Affinity for the hERG channel (hERG potassium channel) |
| --- | --- | --- | --- | --- | --- | --- | --- | --- |
| NC(=O)c1ccc(OCCNC[C@H](O)COc2ccc3c(c2)OC[C@@H](COCC2CC2)O3)cc1 [NDD-713] | 2188 | 0.00851 µM | 18.6 µM | 3.39 µM | 0.15 | 0.07 μl/min/pmol P450 | Neither compound displayed genotoxicity | no affinity for the hERG channel |
| O=C1NCc2cc(OCCNC[C@H](O)COc3ccc4c(c3)OC[C@@H](COCC3CC3)O4)ccc21 [NDD-825] | 3090 | 0.00427 µM | 13.2 µM | 1.91 µM | 0.01 | 0.17 μl/min/pmol P450 | Neither compound displayed genotoxicity | no affinity for the hERG channel |
